Results published in patent publication US12454531B2, “Substituted piperazine derivatives useful as T cell activators” (BRISTOL-MYERS SQUIBB COMPANY, priority 2019, dated 2025).

The compounds below were run against DGKα (Homo sapiens (Human), UniProt P23743) (assay: Assay 2: In Vitro DGK Inhibition Assays, Method B (DGKα ADPGLO)). Settings: 150 μM ATP.
Assay type: biochemical
Description: Assay 2: In Vitro DGK Inhibition Assays—Method B
The DGKα and DGKζ reactions were performed using either extruded liposome (DGKα and DGKζ LIPGLO assays) or detergent/lipid micelle substrate (DGKα and DGKζ assays). The reactions were carried out in 50 mM MOPS pH 7.5, 100 mM NaCl, 10 mM MgCl2, 1 μM CaCl2), and 1 mM DTT (assay buffer). The reactions using a detergent/lipid micelle substrate also contained 50 mM octyl B-D-glucopyranoside. The lipid substrate concentrations were 11 mM PS and 1 mM DAG for the detergent/lipid micelle reactions. The lipid substrate concentrations were 2 mM PS, 0.25 mM DAG, and 2.75 mM PC for the extruded liposome reactions (5 mM total lipid). The reactions were carried out in 150 μM ATP. The enzyme concentrations for the DGKα and DGKζ were nM.
The compound inhibition studies were carried out as follows: 25 nL droplets of each test compound (top concentration 10 mM with 11 point, 3-fold dilution series for each compound) solubilized in DMSO were transferred to wells of a white 1536 well plate (Corning 3725). A 5 mL enzyme/lipid substrate solution at 2× final reaction concentration was prepared by combining 2.5 mL 4× enzyme solution (20 nM DGKα or DGKζ (prepared as described below) in assay buffer) and 2.5 mL of either 4× liposome or 4× detergent/lipid micelle solution (compositions described below) and incubated at room temperature for 10 minutes. Next, 1 μL 2× enzyme/lipid substrate solution was added to wells containing the test compound and reactions were initiated with the addition of 1 μL 300 uM ATP. The reactions were allowed to proceed for 2 hr, after which 2 μL Glo Reagent (Promega V9101) was added and incubated for 40 minutes. Next, 4 μL Kinase Detection Reagent was added and incubated for 30 minutes. Luminescence was recorded using an EnVision microplate reader. […] The compounds were evaluated at 11 concentrations to determine IC50.
The detergent/lipid micelle was prepared by combining 15 g phosphatidylserine (Avanti 840035P) and 1 g diacylglycerol (8008110) and dissolving into 150 mL chloroform in a 2 L round bottom flask. Chloroform was removed under high vacuum by rotary evaporation. The resulting colorless, tacky oil was resuspended in 400 mL 50 mM MOPS pH 7.5, 100 mM NaCl, 20 mM NaF, 10 mM MgCl2, 1 μM CaCl2), 1 mM DTT, and 200 mM octyl glucoside by vigorous mixing. The lipid/detergent solution was split into 5 mL aliquots and stored at −80° C.
The lipid composition was 5 mol % DAG (Avanti 8008110), 40 mol % PS (Avanti 840035P), and 55 mol % PC (Avanti 850457) at a total lipid concentration of […] for the liposome solution. The PC, DAG, and PS were dissolved in chloroform, combined, and dried in vacuo to a thin film. The lipids were hydrated to 20 mM in 50 mM MOPS pH 7.5, 100 mM NaCl, 5 mM MgCl2, and were freeze-thawed five times. The lipid suspension was extruded through a 100 nm polycarbonate filter 10-12 times. Dynamic light scattering was carried out to confirm liposome size (50-60 nm radius). The liposome preparation was stored at 4° C. for as long as four weeks.
Human MA-hDGKα-(S9-S727)-Ct-TVMV-His-pFBgate and full length human DGK-ζ-transcript variant-2-TVMV-His-pFBgate baculovirus samples were generated using the Bac-to-Bac baculovirus expression system (Invitrogen) according to the manufacturer's protocol (note: MA- in name of DGKα reagents indicates two extra amino acids added prior to Ser-9). The DNA used for expression of the DGK-α(9-727) and DGK-C have SEQ ID NOs: 5 and 3, respectively. […]

Sequence of DGKα (P23743 other isoform, or with tags, fused parts or gaps): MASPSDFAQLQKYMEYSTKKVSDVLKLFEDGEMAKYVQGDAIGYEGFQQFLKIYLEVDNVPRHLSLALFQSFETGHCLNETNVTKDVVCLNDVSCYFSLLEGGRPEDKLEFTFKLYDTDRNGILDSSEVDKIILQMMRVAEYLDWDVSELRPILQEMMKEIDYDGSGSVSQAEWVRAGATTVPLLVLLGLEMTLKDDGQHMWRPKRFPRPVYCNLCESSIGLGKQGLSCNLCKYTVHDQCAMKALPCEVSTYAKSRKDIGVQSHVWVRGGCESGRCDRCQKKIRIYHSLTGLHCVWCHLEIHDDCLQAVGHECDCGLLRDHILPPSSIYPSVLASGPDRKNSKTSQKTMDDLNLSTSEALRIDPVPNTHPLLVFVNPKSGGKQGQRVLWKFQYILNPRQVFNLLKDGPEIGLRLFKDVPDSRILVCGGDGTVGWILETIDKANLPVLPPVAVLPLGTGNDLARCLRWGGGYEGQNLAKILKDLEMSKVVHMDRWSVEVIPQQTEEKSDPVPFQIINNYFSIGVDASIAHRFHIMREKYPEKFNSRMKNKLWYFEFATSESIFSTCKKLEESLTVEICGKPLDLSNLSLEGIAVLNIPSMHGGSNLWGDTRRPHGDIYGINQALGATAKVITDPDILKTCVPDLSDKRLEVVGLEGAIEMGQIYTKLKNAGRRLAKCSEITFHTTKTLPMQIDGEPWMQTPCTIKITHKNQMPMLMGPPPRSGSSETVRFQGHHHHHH

| IC50 [µM] | SMILES |
| --- | --- |
| 1.97 | CC[C@H]1CN(C(C(=O)N2CCOCC2)c2ccc(C(F)(F)F)cc2)[C@H](CC)CN1c1nc(=O)n(C)c2ccc(C#N)nc12 (single isomer, unassigned) [Example 53] |
| 0.26 | CC[C@H]1CN(C(C(=O)N2CCOCC2)c2ccc(C(F)(F)F)cc2)[C@H](CC)CN1c1nc(=O)n(C)c2ccc(C#N)nc12 (single isomer, unassigned) [Example 54] |
| 7.5 | CC[C@H]1CN(C(C(=O)NCCOC)c2ccc(C(F)(F)F)cc2)[C@H](CC)CN1c1nc(=O)n(C)c2ccc(C#N)nc12 (single isomer, unassigned) [Example 56] |
